# B1: U582403: tomato catechol O-methyltransferase from S. lycopersicum, SEQ ID NO: 3 (protein)
# chain: MGSTANIQLATQSEDEERNCTYAMQLLSSSVLPFVLHSTIQLDVFDILAKDKAATKLSALEIVSHMPNCKNPDAATMLDRMLYVLASYSLLDCSVVEEGNGVTERRYGLSRVGKFFVRDEDGASMGPLLALLQDKVFINSWFELKDAVLEGGVPFDRVHGVHAFEYPKLDPKFNDVFNQAMINHTTVVMKRILENYKGFENLKTLVDVGGGLGVNLKMITSKYPTIKGTNFDLPHVVQHAPSYPGVDHVGGDMFESVPQGDAIFMKWILHDWSDGHCLKLLKNCHKALPDNGKVIVVEANLPVKPDTDTTVVGVSQCDLIMMAQNPGGKERSEQEFRALASEAGFKGVNLICCVCNFWVMEFYK
# modifications: S. lycopersicum
# Key:
# SIOMT1 = experiment: Substrate specificity assay of purified recombinant SIOMT1 with [14C]-AdoMet; format: biochemical, Solanum lycopersicum; conditions: 15 μM substrate, 30 min, 25°, products extracted with hexanes, scintillation counting
# Protocol: FIG. 2 illustrates the chemical structure and relative activity of SIOMT1 on catechol and substrates with similar structure to catechol. Relative activity was determined by incubating purified SIOMT with excess amounts of [C^14]-AdoMet and […] of substrate. Products were extracted with hexanes and measured with a scintillation counter. Relative activity is expressed as a percentage of activity on catechol. 1=catechol; 2=guaiacol; 3=salicylic acid; 4=benzoic acid; 5=orcinol; 6=caffeic acid.
# For substrate specificity assays, 5 μL purified enzyme was assayed at 25° in a 100 μL reaction containing 50 mM Tris-HCl, pH 7.5, 100 mM KCl, 2.8 mM BME, 15 μM substrate, 10 mM SAM, 0.4 mM [methyl-^14C] AdoMet (specific activity 50.4 mCi mmol^−1; Amersham). Substrates were diluted in 50% EtOH. Assays were done in triplicate, including boiled enzyme controls. After 30 min at 25° the reactions were stopped by adding equal volumes of hexanes. The methylated substrate was extracted on a vortex mixer for 15 sec and centrifuging at 13 200 g for 5 min. 50 μL of the organic layer was counted for 10 min in 3 ml Ready Gel Scintillation Fluid (Beckman Coulter, http://www.beckmancoulter.com). Counts for the boiled enzyme controls were subtracted from the sample counts, and activity for catechol was normalized to 100%. For the Km of catechol, procedures were the same as above, except for catechol concentrations. Concentrations used were: 0, 1, 5, 15, 25, and 50 μM.
# To further test the specificity of SGN-U582403 (SIOMT1) for catechol, the activity of SIOMT1 on substrates with similar structure to catechol was measured. Purified protein was incubated with [^14C]-AdoMet and the following potential substrates: catechol, guaiacol, salicylic acid, benzoic acid, orcinol, or caffeic acid. Products were extracted with hexanes and measured with a scintillation counter.
# [1] = system: tomato fruit pericarp discs; experiment: Catechol feeding of tomato fruit pericarp discs, guaiacol by GC/MS; format: cell-based, Solanum lycopersicum cv. Flora-Dade; conditions: 10 μl of 1 M catechol per disc
# Protocol: FIGS. 6A and 6B illustrate results of catechol feeding of tomato discs. Tomato fruit discs were made from the pericarp of Flora-Dade and SIOMT1OE ripe fruit and treated with water or catechol. Volatiles of the discs were collected after 5 h and analyzed using GC-MS. FIG. 6A illustrates the spectrum showing the guaiacol peak at 20.65 minutes. […] The table in FIG. 6B summarizes the differences in guaiacol production between Flora-Dade and SIOMT1OE.
# Tomato discs were cut from pericarp tissue of ripe WT and SIOMT1 over-expressing fruit using a size 10 borer. A hundred discs were used for each sample treatment. Discs were placed in petri dishes and an X was cut in the top of each. 10 μl of either water or 1 M catechol dissolved in water was pipetted into each disc. Cover were place on petri dish and disc were left to incubate for 5 hr. Disc were then place in glass tube and volatiles were extracted as previously described. Guaiacol was quantified on GC/MS using a guaiacol standard curve.
# Rather, low concentrations of catechol might limit the production of guaiacol in SIOMT1 plants. Thus, to further test this, catechol was fed to fruit pericarp discs of Flora-Dade (WT) and SIOMT1 over-expressing lines. Volatiles were collected after incubation for […]. Both WT and SIOMT1 discs produced increased guaiacol when fed catechol. […]
# [2] = Initial screen: catechol added to E. coli cultures expressing candidate OMT, guaiacol production measured; format: cell-based, Solanum lycopersicum cv. M82; conditions: induced protein in E. coli cultures
# Protocol: Potential S. lycopersicum catechol OMT candidates were selected by identification of genes with homology to previously characterized catechol and caffeic acid OMTs (FIG. 1). Five candidate genes were selected, SGN-U582403, SGN-U565623, SGN-U319245, SGN-U575022, and SGN-U321686. Full length cDNAs were synthesized from S. lycopersicum cv. M82 ripe fruit RNA. Candidate genes were cloned into pET160 plasmids for expression in E. coli. Initial screens were performed by adding catechol directly to bacterial cultures expressing induced protein and measuring guaiacol production.
Molecule,activity of SIOMT1 on substrate relative to catechol (SIOMT1),guaiacol produced by catechol-fed discs relative to the unfed control ([1]; SIOMT1 over-expressing discs),guaiacol produced by catechol-fed discs relative to the unfed control ([1]; WT (Flora-Dade) discs),conversion of catechol to guaiacol by candidate OMT [2]
O=C(O)/C=C/c1ccc(O)c(O)c1 [caffeic acid],slight activity,,,
Oc1ccccc1O [catechol],preferentially methylated,52 times,36 times,
Cc1cc(O)cc(O)c1 [orcinol],slight activity,,,
B1,,,,converted catechol to guaiacol

# Source: US20130074216A1, “TOMATO CATECHOL-O-METHYLTRANSFERASE SEQUENCES AND METHODS OF USE” (UNIVERSITY OF FLORIDA RESEARCH FOUNDATION, INC., priority 2011, published 2013)
